“Also recorded” adds a separate entry of the source.
Experiments:
Solubility for NMR = assay type: physicochemical; details: 80% H2O/10% ^2H2O/10% 2H6-DMSO
[1] = NMR titration with ferric ions; assay type: binding; details: pH 4.0, 298 K, FeCl3, precipitate in the NMR tube
[2] = Absorption titration with ferric citrate; assay type: binding; details: by relative association constants
human CCK2 receptor = molecular target: T1, human CCK2 receptor (Homo sapiens, UniProt P32239); test: Receptor binding assay, CCK2 receptor; details: 1 μM desferrioxamine, COS-7 cells; triplicates, ANOVA
T1 sequence (P32239 1-447): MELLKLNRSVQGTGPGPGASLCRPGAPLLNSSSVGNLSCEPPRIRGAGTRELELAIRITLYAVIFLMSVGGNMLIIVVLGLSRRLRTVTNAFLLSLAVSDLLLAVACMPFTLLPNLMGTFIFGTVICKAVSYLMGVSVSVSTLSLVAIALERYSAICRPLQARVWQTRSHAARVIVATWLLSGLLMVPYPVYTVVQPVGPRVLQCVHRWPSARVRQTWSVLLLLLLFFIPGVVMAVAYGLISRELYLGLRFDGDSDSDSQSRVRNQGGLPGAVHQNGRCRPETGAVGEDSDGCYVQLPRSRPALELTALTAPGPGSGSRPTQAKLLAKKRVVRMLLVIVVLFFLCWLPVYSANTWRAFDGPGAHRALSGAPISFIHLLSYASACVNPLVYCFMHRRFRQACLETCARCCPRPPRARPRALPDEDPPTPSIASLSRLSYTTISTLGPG

[3] = tested on: cell proliferation and migration; details: cited from earlier work
human CCK1 receptor = molecular target: T2, human CCK1 receptor (Homo sapiens, UniProt P32238); test: Receptor binding assay, CCK1 receptor; details: 1 μM desferrioxamine, COS-7 cells; triplicates, ANOVA
T2 sequence (P32238 1-428): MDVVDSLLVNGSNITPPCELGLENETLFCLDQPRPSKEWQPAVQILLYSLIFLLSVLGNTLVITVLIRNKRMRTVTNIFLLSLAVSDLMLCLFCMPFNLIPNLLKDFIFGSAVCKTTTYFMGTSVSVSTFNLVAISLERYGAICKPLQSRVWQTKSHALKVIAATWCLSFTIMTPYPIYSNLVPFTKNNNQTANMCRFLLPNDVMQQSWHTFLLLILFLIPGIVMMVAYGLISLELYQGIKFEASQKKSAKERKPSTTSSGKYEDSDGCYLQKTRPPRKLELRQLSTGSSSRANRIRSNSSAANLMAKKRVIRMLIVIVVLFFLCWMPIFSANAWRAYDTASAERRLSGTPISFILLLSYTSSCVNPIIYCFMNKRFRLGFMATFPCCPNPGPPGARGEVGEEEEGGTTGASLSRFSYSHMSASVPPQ

[4] = cited from earlier work
[5] = Absorption spectroscopy titration with ferric chloride; details: 40 μM peptide, 298 K

CSCC[C@H](NC(=O)[C@H](Cc1ccc(O)cc1)NC(=O)[C@@H](N)CC(=O)O)C(=O)NCC(=O)N[C@@H](Cc1c[nH]c2ccccc12)C(=O)N[C@@H](CCSC)C(=O)N[C@@H](CC(=O)O)C(=O)N[C@@H](Cc1ccccc1)C(N)=O [CCK8]
solubility (in words) (Solubility for NMR): required the presence of ^2H6-DMSO (80% H2O/10% ^2H2O/10% 2H6-DMSO) to achieve solubility at 0.23 mM
solubility of Fe^3+-peptide complex (in words) [1]: formation of an insoluble Fe^3+-peptide complex

O=C(O)CC(O)(CC(=O)O)C(=O)O [citrate]
relative Fe^3+ binding (in words) [2]: binds Fe^3+ ions more tightly than any of the CCK peptides

CC(=O)N(O)CCCCCNC(=O)CCC(=O)N(O)CCCCCNC(=O)CCC(=O)N(O)CCCCCN [desferrioxamine]
effect on binding of labelled CCK8SO4, CCK2 receptor (in words) (human CCK2 receptor): no significant effect; also recorded: inability
effect on biological activity of glycine-extended gastrin (in words) ([3]; stimulation of cell proliferation and migration): completely blocked the biological activity of glycine-extended gastrin
effect on binding of labelled CCK8SO4, CCK1 receptor (in words) (human CCK1 receptor): no significant effect; also recorded: inability

N[C@@H](Cc1ccc(OP(=O)(O)O)cc1)C(=O)O [phosphotyrosine]
pKa of the phosphoryl group [4]: 5.9

CCK4
absorbance change on addition of ferric chloride, pH 4.0 (in words) ([5]; pH 4.0, 275 nm): no change in the absorbance; also recorded: did not cause any change in absorption
absorbance change / binding on addition of ferric chloride, pH 6.5 (in words) ([5]; pH 6.5, 275 nm): No evidence of binding of ferric ions; also recorded: no increase in absorbance was seen

ZGPWLEEEEEAYGWMDFamide [amidated gastrin]
requirement of ferric ions for biological activity (in words) [3]: ferric ions were not required for the biological activity
